Structures can show the parent of a compound that is named as a salt.
Key:
T-47D Tam2 [1] = assay: relative IC50 (midpoint of fitted logistic curve, plateau may be below 50% inhibition; CellTiter-Glo viability); higher = less potent; details: 4-OH-tamoxifen in medium 1 µM; 72 h
Method in brief: (§1)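 After seeding into 384-well plates with library drugs at five concentrations spanning a 10 000-fold range, breast cancer cell lines and their resistant derivatives were incubated 72 h at 37 °C. Resistant lines received medium with 1 μM of the selecting drug. CellTiter-Glo signal was read on a PHERAstar and scaled to vehicle-only and positive controls. Drug sensitivity score, relative IC50 (the curve midpoint) and top-dose inhibition came from logistic fits run in the Breeze pipeline.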

BT-474 Tam1 [2] = assay: as above; details: 4-OH-tamoxifen in medium 1 µM; 72 h
Method in brief: as §1

ZR-75-1 Tam2 [3] = assay: as above; details: 4-OH-tamoxifen in medium 1 µM; 72 h
Method in brief: as §1

BT-474 Tam2 [4] = assay: as above; details: 4-OH-tamoxifen in medium 1 µM; 72 h
Method in brief: as §1

ZR-75-1 [5] = assay: as above; details: 72 h
Method in brief: as §1

T-47D [6] = assay: as above; details: 72 h
Method in brief: as §1

BT-474 [7] = assay: as above; details: 72 h
Method in brief: as §1

MCF-7 Tam1 [8] = assay: as above; details: 4-OH-tamoxifen in medium 1 µM; 72 h
Method in brief: as §1

T-47D Tam1 [9] = assay: as above; details: 4-OH-tamoxifen in medium 1 µM; 72 h
Method in brief: as §1

MCF-7 [10] = assay: as above; details: 72 h
Method in brief: as §1

T-47D Tam2 [11] = assay: drug sensitivity score (DSS) (DSS (dimensionless)); higher = more sensitive; extreme values may be limits of the assay; details: 4-OH-tamoxifen in medium 1 µM; 72 h
Method in brief: as §1

BT-474 Tam1 [12] = assay: as above; details: 4-OH-tamoxifen in medium 1 µM; 72 h
Method in brief: as §1

ZR-75-1 Tam2 [13] = assay: as above; details: 4-OH-tamoxifen in medium 1 µM; 72 h
Method in brief: as §1

BT-474 Tam2 [14] = assay: as above; details: 4-OH-tamoxifen in medium 1 µM; 72 h
Method in brief: as §1

ZR-75-1 [15] = assay: as above; details: 72 h
Method in brief: as §1

T-47D [16] = assay: as above; details: 72 h
Method in brief: as §1

BT-474 [17] = assay: as above; details: 72 h
Method in brief: as §1

MCF-7 Tam1 [18] = assay: as above; details: 4-OH-tamoxifen in medium 1 µM; 72 h
Method in brief: as §1

ZR-75-1 Tam1 [19] = assay: as above; details: 4-OH-tamoxifen in medium 1 µM; 72 h
Method in brief: as §1

T-47D Tam1 [20] = assay: as above; details: 4-OH-tamoxifen in medium 1 µM; 72 h
Method in brief: as §1

MCF-7 [21] = assay: as above; details: 72 h
Method in brief: as §1

ZR-75-1 Tam1 [22] = assay: relative IC50 (midpoint of fitted logistic curve, plateau may be below 50% inhibition; CellTiter-Glo viability); higher = less potent; details: 4-OH-tamoxifen in medium 1 µM; 72 h
Method in brief: as §1

Compound | relative IC50 (T-47D Tam2 [1]) | relative IC50 (BT-474 Tam1 [2]) | relative IC50 (BT-474 Tam2 [4]) | relative IC50 (T-47D [6]; 4-OH-tamoxifen in medium 0 µM) | relative IC50 (T-47D [6]; 4-OH-tamoxifen in medium 1 µM) | relative IC50 (BT-474 [7]; 4-OH-tamoxifen in medium 0 µM) | relative IC50 (BT-474 [7]; 4-OH-tamoxifen in medium 1 µM) | relative IC50 (MCF-7 Tam1 [8]) | relative IC50 (T-47D Tam1 [9]) | relative IC50 (MCF-7 [10]; 4-OH-tamoxifen in medium 0 µM) | relative IC50 (MCF-7 [10]; 4-OH-tamoxifen in medium 1 µM) | relative IC50 (ZR-75-1 Tam2 [3]) | relative IC50 (ZR-75-1 [5]; 4-OH-tamoxifen in medium 0 µM) | relative IC50 (ZR-75-1 [5]; 4-OH-tamoxifen in medium 1 µM) | drug sensitivity score (T-47D Tam2 [11]) | drug sensitivity score (BT-474 Tam1 [12]) | drug sensitivity score (ZR-75-1 Tam2 [13]) | drug sensitivity score (BT-474 Tam2 [14]) | drug sensitivity score (ZR-75-1 [15]; 4-OH-tamoxifen in medium 0 µM) | drug sensitivity score (ZR-75-1 [15]; 4-OH-tamoxifen in medium 1 µM) | drug sensitivity score (T-47D [16]; 4-OH-tamoxifen in medium 0 µM) | drug sensitivity score (T-47D [16]; 4-OH-tamoxifen in medium 1 µM) | drug sensitivity score (BT-474 [17]; 4-OH-tamoxifen in medium 0 µM) | drug sensitivity score (BT-474 [17]; 4-OH-tamoxifen in medium 1 µM) | drug sensitivity score (MCF-7 Tam1 [18]) | drug sensitivity score (ZR-75-1 Tam1 [19]) | drug sensitivity score (T-47D Tam1 [20]) | drug sensitivity score (MCF-7 [21]; 4-OH-tamoxifen in medium 0 µM) | drug sensitivity score (MCF-7 [21]; 4-OH-tamoxifen in medium 1 µM) | relative IC50 (ZR-75-1 Tam1 [22])
COc1cc(Nc2ncc(F)c(Nc3ccc4c(n3)N(COP(=O)(O)O)C(=O)C(C)(C)O4)n2)cc(OC)c1OC | 2270 nM | 3560 nM | > 10000 nM | 2340 nM | 2890 nM | > 10000 nM | 2920 nM | 6950 nM | 1430 nM | 1790 nM | 2360 nM | 3160 nM | > 10000 nM | – | 3.3 | 2.63 | 1.42 | 0 | 0 | 0.307 | 2.65 | 1.95 | 0 | 2.25 | 1.04 | 1.22 | 4.15 | 2.7 | 4.99 | –
COc1cccc2c1C(=O)c1c(O)c3c(c(O)c1C2=O)C[C@@](O)(C(=O)CO)C[C@@H]3O[C@H]1C[C@H](N)[C@H](O)[C@H](C)O1 [Doxorubicin] | 300 nM | 399 nM | – | 154 nM | 396 nM | 374 nM | 424 nM | 387 nM | 171 nM | 247 nM | 331 nM | 144 nM | 199 nM | 214 nM | 4.23 | 2.96 | 7.21 | 0.115 | 4.96 | 6.3 | 6.88 | 3.36 | 3 | 3.73 | 2.46 | 4.65 | 6.83 | 5.29 | 3.47 | 286 nM
CNC(=O)c1ccc(N2C(=S)N(c3ccc(C#N)c(C(F)(F)F)c3)C(=O)C23CCC3)cc1F [RD162] | > 10000 nM | – | – | > 10000 nM | – | > 10000 nM | > 10000 nM | > 10000 nM | > 10000 nM | > 10000 nM | – | > 10000 nM | > 10000 nM | > 10000 nM | 0 | 0.0464 | 0 | 0.498 | 0 | 0 | 0 | 0.215 | 0 | 0 | 0 | 0 | 0 | 0 | 1.42 | > 10000 nM
CCN(CC)CCCC(C)Nc1ccnc2cc(Cl)ccc12 (stereo unspecified) [Chloroquine] | > 990000 nM | – | – | > 990000 nM | > 990000 nM | > 990000 nM | > 990000 nM | > 990000 nM | > 990000 nM | > 990000 nM | > 990000 nM | > 990000 nM | > 990000 nM | > 990000 nM | 0 | 0.266 | 0 | 0.999 | 0 | 0 | 0 | 0 | 0 | 0 | 0 | 0 | 0 | 0 | 0 | > 990000 nM
O=C(/C=C/c1cccnc1)NCCCCC1CCN(C(=O)c2ccccc2)CC1 [Daporinad (FK-866 HCl)] | 14.7 nM | 94.3 nM | – | 7.21 nM | 13.2 nM | – | 74.3 nM | > 1000 nM | 3.87 nM | 19 nM | 54.1 nM | > 1000 nM | > 1000 nM | > 1000 nM | 18.9 | 5.63 | 0 | 1.29 | 0 | 0 | 24.1 | 20.7 | 0 | 8.73 | 0 | 0 | 27.2 | 15.8 | 10.4 | > 1000 nM

The next lines start with results.

relative IC50 (T-47D Tam2 [1]) | relative IC50 (BT-474 Tam1 [2]) | relative IC50 (BT-474 Tam2 [4]) | relative IC50 (T-47D [6]; 4-OH-tamoxifen in medium 0 µM) | relative IC50 (T-47D [6]; 4-OH-tamoxifen in medium 1 µM) | relative IC50 (BT-474 [7]; 4-OH-tamoxifen in medium 0 µM) | relative IC50 (BT-474 [7]; 4-OH-tamoxifen in medium 1 µM) | relative IC50 (MCF-7 Tam1 [8]) | relative IC50 (T-47D Tam1 [9]) | relative IC50 (MCF-7 [10]; 4-OH-tamoxifen in medium 0 µM) | relative IC50 (MCF-7 [10]; 4-OH-tamoxifen in medium 1 µM) | Compound | relative IC50 (ZR-75-1 Tam2 [3]) | relative IC50 (ZR-75-1 [5]; 4-OH-tamoxifen in medium 0 µM) | relative IC50 (ZR-75-1 [5]; 4-OH-tamoxifen in medium 1 µM) | drug sensitivity score (T-47D Tam2 [11]) | drug sensitivity score (BT-474 Tam1 [12]) | drug sensitivity score (ZR-75-1 Tam2 [13]) | drug sensitivity score (BT-474 Tam2 [14]) | drug sensitivity score (ZR-75-1 [15]; 4-OH-tamoxifen in medium 0 µM) | drug sensitivity score (ZR-75-1 [15]; 4-OH-tamoxifen in medium 1 µM) | drug sensitivity score (T-47D [16]; 4-OH-tamoxifen in medium 0 µM) | drug sensitivity score (T-47D [16]; 4-OH-tamoxifen in medium 1 µM) | drug sensitivity score (BT-474 [17]; 4-OH-tamoxifen in medium 0 µM) | drug sensitivity score (BT-474 [17]; 4-OH-tamoxifen in medium 1 µM) | drug sensitivity score (MCF-7 Tam1 [18]) | drug sensitivity score (ZR-75-1 Tam1 [19]) | drug sensitivity score (T-47D Tam1 [20]) | drug sensitivity score (MCF-7 [21]; 4-OH-tamoxifen in medium 0 µM) | drug sensitivity score (MCF-7 [21]; 4-OH-tamoxifen in medium 1 µM) | relative IC50 (ZR-75-1 Tam1 [22])
> 100000 nM | > 100000 nM | > 100000 nM | > 100000 nM | > 100000 nM | > 100000 nM | > 100000 nM | > 100000 nM | > 100000 nM | > 100000 nM | > 100000 nM | S=P(N1CC1)(N1CC1)N1CC1 [Thio-TEPA] | > 100000 nM | > 100000 nM | > 100000 nM | 0 | 0 | 0 | 0 | 0 | 0 | 0 | 0 | 0 | 0 | 0 | 0.276 | 0 | 0 | 0 | –
> 1000 nM | 449 nM | – | > 1000 nM | > 1000 nM | > 1000 nM | – | > 1000 nM | > 1000 nM | – | – | Oc1ccc2c(c1)CC[C@H](c1ccccc1)[C@@H]2c1ccc(OCCN2CCCC2)cc1 [Lasofoxifene] | > 1000 nM | > 1000 nM | > 1000 nM | 0 | 1.01 | 0 | 0.434 | 0 | 0 | 0 | 0 | 0 | 0.881 | 0 | 0 | 0 | 1.49 | 0.854 | > 1000 nM
> 10000 nM | – | > 10000 nM | > 10000 nM | > 10000 nM | > 10000 nM | > 10000 nM | > 10000 nM | > 10000 nM | – | – | O=NN(CCCl)C(=O)NC1CCCCC1 [Lomustine] | > 10000 nM | > 10000 nM | > 10000 nM | 0 | 0 | 0 | 0 | 0 | 0 | 0 | 0 | 0 | 0 | 0 | 0 | 0 | 0.0319 | 0.0924 | > 10000 nM

From the supplement of paper PMC4932681
